Structures are written as SMILES. Bounds are passed on as bounds.

Experiment [1] concerns the target T1, recombinant human ALK5 (TGF-βR1) protein (Homo sapiens, UniProt P36897).
T1 construct: purchased Life Technologies PR9075A
T1 sequence (P36897 34-503): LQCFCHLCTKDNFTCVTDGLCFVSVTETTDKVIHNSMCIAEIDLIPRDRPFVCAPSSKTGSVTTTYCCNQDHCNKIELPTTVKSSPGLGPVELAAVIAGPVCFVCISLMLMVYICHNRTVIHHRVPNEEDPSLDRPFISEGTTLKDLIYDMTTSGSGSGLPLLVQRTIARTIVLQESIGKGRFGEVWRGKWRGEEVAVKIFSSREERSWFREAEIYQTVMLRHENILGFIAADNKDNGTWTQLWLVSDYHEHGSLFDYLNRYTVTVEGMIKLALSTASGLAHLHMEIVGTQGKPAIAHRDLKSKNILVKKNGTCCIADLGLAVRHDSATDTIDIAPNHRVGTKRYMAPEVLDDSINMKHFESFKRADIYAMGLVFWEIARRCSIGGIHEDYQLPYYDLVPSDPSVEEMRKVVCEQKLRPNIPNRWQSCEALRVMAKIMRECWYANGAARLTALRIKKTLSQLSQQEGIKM
The experiment in a line: Biochemical ALK5 (TGF-βR1) assay to measure pKi (LANCE Ultra ULight kinase assay). As to conditions: apparent pKi, converted from pIC50 by Cheng-Prusoff. The procedure, abridged:
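Enzyme was preincubated with compound for 60 min at room temperature, then ATP (added from a 125 μM 5× stock with 2 mM DTT) started a 60 min reaction at 37 °C. EDTA plus Eu-anti-phospho-Topo2α (Thr1342) antibody stopped it; TR-FRET pIC50 values were converted to pKi by Cheng-Prusoff.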

The test system of experiment [2] is TGF-β-stimulated SMAD3 phosphorylation in BEAS-2B cells. The experiment in a line: Cellular ALK5 potency assay, inhibition of TGF-β stimulated pSMAD3 formation in BEAS-2B cells. As to conditions: Homo sapiens, pSMAD3, TGF-β 10 ng/mL, read-out: BEAS2B pIC50 (converted). The format is cell-based. The gist of the method:
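BEAS-2B cells, HBSS/25 mM HEPES/1% BSA buffer; cpd 1 h, 37 °C; TGF-β 10 ng/mL final, 30 min; lysis, AlphaLISA pSMAD3 read next day. pIC50 vs stimulated no-compound baseline.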

For the molecule `CNCCNS(=O)(=O)c1ccc(Nc2nccc(Nc3ccnc(-c4cccc(C)n4)n3)n2)cc1` [Compound 427, N-[2-(methylamino)ethyl]-4-[[4-[[2-(6-methyl-2-pyridyl)pyrimidin-4-yl]amino]pyrimidin-2-yl]amino]benzenesulfonamide], the Ki in experiment [1] is 0.0398 to 0.316 nM. The IC50 in experiment [2] was 25.1 to 158 nM.

Consider `Cc1cccc(-c2nccc(Nc3ccnc(Nc4ccc(CN5CCC[C@@H](C(=O)O)C5)cc4)n3)n2)n1` [Compound 428, (3R)-1-[[4-[[4-[[2-(6-methyl-2-pyridyl)pyrimidin-4-yl]amino]pyrimidin-2-yl]amino]phenyl]methyl] piperidine-3-carboxylic acid], for which the Ki in experiment [1] is 0.0398 to 0.316 nM. For the same molecule, the IC50 in experiment [2] is 200 to 1260 nM.

As for `Cc1cccc(-c2nccc(Nc3ccnc(Nc4ccc(N5CCN(C6CCNC6)CC5)cc4)n3)n2)n1` (stereo not shown) [Compound 429, N4-[2-(6-methyl-2-pyridyl)pyrimidin-4-yl]-N2-[4-(4-pyrrolidin-3-ylpiperazin-1-yl)phenyl]pyrimidine-2,4-diamine], the Ki in experiment [1] is 0.0398 to 0.316 nM. Also, in experiment [2], the IC50 is 200 to 1260 nM.

On to `Cc1cccc(-c2nccc(Nc3ccnc(Nc4cccc(S(=O)(=O)NCCN)c4)n3)n2)n1` [Compound 430, N-(2-aminoethyl)-3-[[4-[[2-(6-methyl-2-pyridyl)pyrimidin-4-yl]amino]pyrimidin-2-yl]amino]benzenesulfonamide], for which, in experiment [1], the Ki was 0.0398 to 0.316 nM. Also, the IC50 in experiment [2] is 25.1 to 158 nM.

As for `COc1ccc(Nc2nccc(Nc3ccnc(-c4cccc(C)n4)n3)n2)cc1CN1C[C@@H](C)N[C@@H](C)C1` [Compound 431, N2-[4-methoxy-3-[[rac-(3R,5S)-3,5-dimethylpiperazin-1-yl]methyl]phenyl]-N4-[2-(6-methyl-2-pyridyl)pyrimidin-4-yl]pyrimidine-2,4-diamine], the Ki in experiment [1] is 0.0398 to 0.316 nM. In addition, the IC50 in experiment [2] is 25.1 to 158 nM.

For the molecule `Cc1cccc(-c2nccc(Nc3ccnc(Nc4ccc(N5CCC(N(C)Cc6ccccc6)CC5)cc4)n3)n2)n1` [Compound 432, N2-[4-[4-[benzyl(methyl)amino]-1-piperidyl]phenyl]-N4-[2-(6-methyl-2-pyridyl)pyrimidin-4-yl]pyrimidine-2,4-diamine], the Ki in experiment [1] was 0.0398 to 0.316 nM. Besides, in experiment [2], the IC50 is 25.1 to 158 nM.

On to `Cc1cccc(-c2nccc(Nc3ccnc(Nc4ccc(N5CCCC(C(=O)OCC6CNC6)C5)cc4)n3)n2)n1` (stereo not shown) [Compound 433, azetidin-3-ylmethyl 1-[4-[[4-[[2-(6-methyl-2-pyridyl)pyrimidin-4-yl]amino]pyrimidin-2-yl]amino]phenyl]piperidine-3-carboxylate], for which the Ki in experiment [1] is 0.0398 to 0.316 nM. The IC50 in experiment [2] is 25.1 to 158 nM.

For `Cc1cccc(-c2nccc(Nc3ccnc(Nc4ccc(C(=O)N5CCN(C)CC5)cc4)n3)n2)n1` [Compound 434, (4-methylpiperazin-1-yl)-[4-[[4-[[2-(6-methyl-2-pyridyl)pyrimidin-4-yl]amino]pyrimidin-2-yl]amino]phenyl]methanone], in experiment [1], the Ki is 0.0398 to 0.316 nM. For the same molecule, in experiment [2], the IC50 is 25.1 to 158 nM.

For `Cc1cccc(-c2nccc(Nc3ccnc(Nc4ccc(NC(=O)N5C[C@@H](C)N[C@@H](C)C5)cc4)n3)n2)n1` [Compound 435, rac-(3S,5R)-3,5-dimethyl-N-[4-[[4-[[2-(6-methyl-2-pyridyl)pyrimidin-4-yl]amino]pyrimidin-2-yl]amino]phenyl]piperazine-1-carboxamide], the Ki in experiment [1] is 0.0398 to 0.316 nM. In addition, the IC50 in experiment [2] is 25.1 to 158 nM.

With `CN1CCN(C2CCN(c3ccc(Nc4nccc(Nc5ccnc(-c6cc(Cl)ccc6F)n5)n4)cc3)CC2)CC1` [Compound 436, N4-[2-(5-chloro-2-fluoro-phenyl)pyrimidin-4-yl]-N2-[4-[4-(4-methylpiperazin-1-yl)-1-piperidyl]phenyl]pyrimidine-2,4-diamine], the Ki in experiment [1] is 0.0398 to 0.316 nM. Further, the IC50 in experiment [2] was 25.1 to 158 nM.

`COC(=O)c1cnc(-c2cccc(C)n2)nc1Nc1ccnc(Nc2ccc(N)cc2)n1` [Compound 437, methyl 4-[[2-(4-aminoanilino)pyrimidin-4-yl]amino]-2-(6-methyl-2-pyridyl)pyrimidine-5-carboxylate]: in experiment [1], the Ki is 0.398 to 3.16 nM. In experiment [2], the IC50 is 25.1 to 158 nM.

Regarding `Cc1cccc(-c2nccc(Nc3ccnc(Nc4ccc(CN5CC(C)(N)C5)cc4)n3)n2)n1` [Compound 438, N2-[4-[(3-amino-3-methyl-azetidin-1-yl)methyl]phenyl]-N4-[2-(6-methyl-2-pyridyl)pyrimidin-4-yl]pyrimidine-2,4-diamine], in experiment [1], the Ki is 0.0398 to 0.316 nM. The IC50 in experiment [2] is 25.1 to 158 nM.

Take `Cc1cccc(-c2nccc(Nc3ccnc(Nc4ccc(C(=O)O)s4)n3)n2)n1` [Compound 439, 5-[[4-[[2-(6-methyl-2-pyridyl)pyrimidin-4-yl]amino]pyrimidin-2-yl]amino]thiophene-2-carboxylic acid]: the Ki in experiment [1] was 0.398 to 3.16 nM. Besides, the IC50 in experiment [2] was 200 to 1260 nM.

With `Cc1cccc(-c2nccc(Nc3ccnc(Nc4ccc(-c5cnn(CCN)c5)cc4)n3)n2)n1` [Compound 440, N2-[4-[1-(2-aminoethyl)pyrazol-4-yl]phenyl]-N4-[2-(6-methyl-2-pyridyl)pyrimidin-4-yl]pyrimidine-2,4-diamine], the Ki in experiment [1] is 0.0398 to 0.316 nM. Besides, the IC50 in experiment [2] was 25.1 to 158 nM.

For `Cc1cccc(-c2nccc(Nc3ccnc(Nc4ccc(NS(=O)(=O)N(C)C5CCNCC5)cc4)n3)n2)n1` [Compound 441, 4-[[2-[4-[[methyl(4-piperidyl)sulfamoyl]amino]anilino]pyrimidin-4-yl]amino]-2-(6-methyl-2-pyridyl)pyrimidine], the Ki in experiment [1] is 0.0398 to 0.316 nM. In addition, the IC50 in experiment [2] is 25.1 to 158 nM.

On to `COC(=O)Cc1ccc(Nc2nccc(Nc3ccnc(-c4cccc(C)n4)n3)n2)cc1` [Compound 442, methyl 2-[4-[[4-[[2-(6-methyl-2-pyridyl)pyrimidin-4-yl]amino]pyrimidin-2-yl]amino]phenyl]acetate], for which the Ki in experiment [1] is 0.398 to 3.16 nM. Besides, the IC50 in experiment [2] was 25.1 to 158 nM.

Turning to `Cc1cccc(-c2nccc(Nc3ccnc(Nc4cccc(NC(=O)C5CCCNC5)c4)n3)n2)n1` (stereo not shown) [Compound 443, N-(3-((4-((2-(6-methylpyridin-2-yl)pyrimidin-4-yl)amino)pyrimidin-2-yl)amino)phenyl)piperidine-3-carboxamide], the Ki in experiment [1] is 0.0398 to 0.316 nM. In addition, the IC50 in experiment [2] is no more than 20 nM.

Turning to `Cc1cccc(-c2nccc(Nc3ccnc(Nc4ccc(CN5CCCC(C(=O)O)C5)cc4)n3)n2)n1` (stereo not shown) [Compound 444, 1-[[4-[[4-[[2-(6-methyl-2-pyridyl)pyrimidin-4-yl]amino]pyrimidin-2-yl]amino]phenyl]methyl] piperidine-3-carboxylic acid], the Ki in experiment [1] was 0.0398 to 0.316 nM. For the same molecule, the IC50 in experiment [2] was 25.1 to 158 nM.

As for `Cc1cccc(-c2nccc(Nc3ccnc(Nc4ccc(N5CCNCC5)c(Cl)c4)n3)n2)n1` [Compound 445, N2-(3-chloro-4-piperazin-1-yl-phenyl)-N4-[2-(6-methyl-2-pyridyl)pyrimidin-4-yl]pyrimidine-2,4-diamine], the Ki in experiment [1] is 0.0398 to 0.316 nM. The IC50 in experiment [2] is 25.1 to 158 nM.

With `CN1CCN(C2CCN(c3ccc(Nc4nccc(Nc5ccnc(-c6ccccc6F)n5)n4)cc3)CC2)CC1` [Compound 446, N4-[2-(2-fluorophenyl)pyrimidin-4-yl]-N2-[4-[4-(4-methylpiperazin-1-yl)-1-piperidyl]phenyl]pyrimidine-2,4-diamine], the Ki in experiment [1] is 0.398 to 3.16 nM. Also, the IC50 in experiment [2] is 25.1 to 158 nM.
